Test results published in PMC6097146, “Drug‐Bearing Supramolecular MMP Inhibitor Nanofibers for Inhibition of Metastasis and Growth of Liver Cancer” (Advanced Science, 2018).
In brackets after ≈: the same amount, converted by molar mass. Where no end group is shown, it is not given here.

Tests used:
SMMC7721 cells [1] = test: MTT cell toxicity assay; type: cell-based; details: 24 h incubation, mean ± SD (n = 6)
Description: (§1) Data are given as the mean ± SD (n = 6).
Cell Toxicity Assay: Cytotoxicity in SMMC7221 cells was quantified using an MTT assay. Cells were incubated in Dulbecco's modified Eagle medium (DMEM) medium containing 10% fetal calf serum at 37 °C in an atmosphere of 5% CO2 in air. For the cytotoxicity assay, SMMC7721 cells were precultured in 96‐well cell culture plates at a density of 1.0 × 10^5 cells per well in 100 µL of medium and grown overnight.

SMMC7721 cells [2] = test: In vitro migration assay (transwell); type: cell-based; details: SMMC7721 cells treated 24 h with 2.5 µg mL^−1 DOX/well, then 24 h transwell incubation, crystal violet
Description: Microscopy images of b) migration and c) invasion and e,f) quantitative analysis of SMMC7721 cells that passed through the membrane. […] Cells without treatments were used as control.
Then, 500 µL of media were added to the lower chamber as a chemoattractant. […] Cells that got through the membrane and were located on the lower surface were fixed using 4% paraformaldehyde, stained with crystal violet, and quantified with a microplate reader (Leica, Germany).

SMMC7721 tumors = test: Inhibition of liver tumor growth in mice bearing SMMC7721 tumors; type: in vivo; details: intratumor injection, 5 mg kg^−1 DOX, versus saline and KGFRWR groups
Description: At the end of the experiment, tumors were photographed and weighed.
The body weight and tumor volume were recorded and calculated three times a week for three weeks. The tumor length (L), which is the longest diameter of the tumor, and width (W), which is the diameter in the direction perpendicular to the length, were measured using Vernier calipers, and the tumor volume (V) was counted using the following formula: V = LW ^2/2. Then, mice were sacrificed and photographed, and the primary tumors and the lungs were striped, and then washed with cold PBS. Primary tumors were weighed and photographed. Histological sections of the primary tumors were used for the following three purposes: first, the sections were stained with H&E to detect tumor apoptosis and necrosis; second, TUNEL staining was used to detect DNA fragmentation in the nucleus of late apoptotic cells in the tissue; and third, sections were incubated with an anticaspase‐3 rabbit antibody (1:200 dilution) followed by a horseradish peroxidase‐labeled antirabbit immunoglobulins (Abcam, UK) for color development and then counterstained with hematoxylin.

[3] = test system: SMMC7721 pulmonary metastasis; test: SMMC7721 pulmonary metastatic mouse model; type: in vivo; details: SMMC7721 cells injected through the tail vein into nude mice, day 21, compared with saline/control group, n = 6
Description: The antimetastatic effects were evaluated by determining the number of metastatic nodules and the degree of H&E staining in the lung tissues.
as §1
Then, mice were sacrificed and photographed, and the primary tumors and the lungs were striped, and then washed with cold PBS. […] For pulmonary metastatic assays, SMMC7721 cells were trypsinized, suspended in complete medium at a density of 1 × 10^7 cells mL^−1, and then immediately intravenously injected into the nude mice through the tail vein. Images of metastatic nodules on the lungs were obtained with a camera and nodules were counted; histological sections of lungs were stained with H&E for the histopathological examination.

[4] = rat, in vivo
Description: The dynamic behavior of the nanofiber was monitored at predetermined intervals after injection by liquid chromatography‐tandem mass spectrometry (LC/MS/MS).
The rats were anaesthetized with ether. A heparinized capillary was then inserted into eyeground veins to obtain 0.3 mL of blood in a plastic centrifuge tube. Plasma samples were collected by centrifugation at 12 000 rpm for 5 min and then stored immediately at −20 °C until analysis. Next, 300 µL of acetonitrile containing an internal standard (clarithromycin, 20 ng mL^−1) were added to the 100 µL plasma samples to precipitate protein, the mixture was centrifuged at 13 000 rpm for 5 min, and 50 µL of supernatant were assayed by LC/MS/MS.

MMP-2 = biological target: T1, MMP-2 (Homo sapiens, UniProt P08253); test: MMP-2 inhibitor screening assay (fluorescent substrate method); type: biochemical
T1 sequence (P08253 110-660): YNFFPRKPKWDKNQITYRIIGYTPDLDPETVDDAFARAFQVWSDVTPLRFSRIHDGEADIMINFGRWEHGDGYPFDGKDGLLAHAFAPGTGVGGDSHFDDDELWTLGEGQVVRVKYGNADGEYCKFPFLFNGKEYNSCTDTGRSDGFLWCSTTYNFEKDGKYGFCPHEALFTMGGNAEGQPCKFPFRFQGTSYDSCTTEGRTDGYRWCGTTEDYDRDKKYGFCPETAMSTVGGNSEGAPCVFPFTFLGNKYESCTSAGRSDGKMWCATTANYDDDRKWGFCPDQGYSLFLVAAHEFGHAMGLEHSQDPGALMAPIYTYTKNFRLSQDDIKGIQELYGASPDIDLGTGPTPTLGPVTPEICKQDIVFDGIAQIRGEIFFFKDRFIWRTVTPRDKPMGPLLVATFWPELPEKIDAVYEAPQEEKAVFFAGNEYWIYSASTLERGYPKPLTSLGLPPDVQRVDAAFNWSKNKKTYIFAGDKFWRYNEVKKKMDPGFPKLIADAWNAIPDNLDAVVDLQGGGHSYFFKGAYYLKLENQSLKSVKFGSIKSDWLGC
Description: MMP‐2 Inhibitor Screening Assay: The MMP‐2 inhibitory activity of the samples was analyzed using a fluorescent substrate method, as previously described.23 The MMP substrate peptide MOCAC‐Pro‐Leu‐Gly‐Leu‐Dap(Dnp)‐Ala‐Arg‐NH2 was purchased from Sigma. […] The fluorescence intensity was measured at 328 nm for excitation and 393 nm for emission every 15 min for a 2 h period without interrupting the reaction using a fluorescence microplate reader (POLARstar Omega, Germany).

Compound	IC50 (SMMC7721 cell growth) (SMMC7721 cells [1])	migration rate compared with control (SMMC7721 cells [2])	tumor growth (in words) (SMMC7721 tumors)	number of pulmonary metastatic nodules [3]	T1/2 [4]	T max [4]	IC50 (MMP-2)
COc1cccc2c1C(=O)c1c(O)c3c(c(O)c1C2=O)C[C@@](O)(C(=O)CO)C[C@@H]3O[C@H]1C[C@H](N)[C@H](O)[C@H](C)O1 [DOX, doxorubicin]	1.888 µg/mL (≈ 3.47 µM)	39.4%	inhibited tumor growth	distinctly decreased	6.90 ± 1.20 h	0.43 ± 0.16 h	
KGFRWR-NH2 [KGFRWR]							14.2 µM
